Measured values as given in patent US10865196B2, “Compounds for treatment of cancer” (University of Tennessee Research Foundation, priority 2008, dated 2020).
Values joined by “and” are separate entries in the source; they are usually repeats but may differ in a detail not shown here. Identical values can stand only once. Like-named read-outs stand apart in the source and are kept apart here.

Experiments:
[1] = test system: melanoma (A375, B16-F1) and prostate cancer cells (DU145, PC-3, LNCaP, PPC-1); test: SRB assay, range over melanoma and prostate cancer cell lines; format: cell-based; conditions: for antiproliferative activity against melanoma and prostate cancer cell lines, in words: compared with 8f or parent compounds
Protocol: For melanoma assays, one human melanoma cell line (A375) and one mouse melanoma cell line (B16-F1) were used. […] Fibroblast cells were used as a control to determine the selectivity of these compounds against melanoma. Human dermal fibroblast cells were purchased from Cascade Biologics, Inc., Portland, Oreg., USA. […] Cells were exposed to a wide range of concentrations for 48 h in round-bottomed 96-well plates. […] After cells were air-dried overnight and stained with SRB solution, total proteins were measured at 560 nm with a plate reader.

A375 = test: SRB antiproliferation assay, A375 melanoma; format: cell-based, human
From the text: (§1) For melanoma assays, one human melanoma cell line (A375) and one mouse melanoma cell line (B16-F1) were used. […] Fibroblast cells were used as a control to determine the selectivity of these compounds against melanoma. Human dermal fibroblast cells were purchased from Cascade Biologics, Inc., Portland, Oreg., USA.

B16-F1 = test: SRB antiproliferation assay, B16-F1 melanoma; format: cell-based, mouse
From the text: as §1

LNCaP = test: SRB antiproliferation assay, LNCaP prostate cancer; conditions: read-out: IC50 LNCaP, SRB
PPC-1 = test: SRB antiproliferation assay, PPC-1 prostate cancer; conditions: read-out: IC50 PPC-1, SRB
PC-3 = test: SRB antiproliferation assay, PC-3 prostate cancer; conditions: read-out: IC50 PC-3, SRB
DU 145 = test: SRB antiproliferation assay, DU 145 prostate cancer; conditions: read-out: IC50 DU 145, SRB
[2] = Homo sapiens, A-375, 48 h, SRB, 48 h, read-out: IC50 A375 (converted)
[3] = Mus musculus, B16-F1, 48 h, SRB, 48 h, read-out: IC50 B16-F1 (converted)
[4] = range over the examined cell lines, read-out: IC50 over melanoma and prostate cancer cell lines
[5] = Homo sapiens, A-375, SRB, read-out: IC50 A375 (converted)
[6] = Mus musculus, B16-F1, SRB, read-out: IC50 B16-F1 (converted)
[7] = Homo sapiens, A-375, read-out: IC50 A375
[8] = Mus musculus, B16-F1, read-out: IC50 B16-F1

melting point	IC50 (A375; [2]) [µM]	IC50 (B16-F1; [3]) [µM]	IC50 (A375; [5]) [µM]	IC50 (B16-F1; [6]) [µM]	SMILES	other results
–	–	–	4.3	9.8	O=C(c1csc(-c2ccccc2)n1)c1c(F)c(F)c(F)c(F)c1F [17-17]	–
–	–	–	> 20	> 20	O=C(c1ccc2c(c1)OCO2)N1CCC(c2ccccc2)CC1 [19-19]	–
–	–	–	> 20	> 20	O=C(c1ccc(F)cc1)N1CCC(c2ccccc2)CC1 [22-22]	–
–	–	–	> 10	> 10	Cc1ccc(-c2nc(C(=O)c3ccc(F)cc3)cn2C(=O)c2ccc(F)cc2)cc1 [29-29]	–
–	–	–	> 10	> 10	COc1cc(-c2nc(C(=O)c3ccc(F)cc3)cn2C(=O)c2ccc(F)cc2)cc(OC)c1OC [30-30]	–
–	–	–	9.8	> 20	O=C(c1cc(O)c(O)c(O)c1)c1csc(-c2ccccc2)n1 [33-33]	–
–	–	–	> 10	> 10	COc1cc(C(=O)c2csc(-c3ccccc3)n2)cc(OC)c1O [34-34]	–

The remaining lines, values behind:

SMILES	melting point	IC50 (A375; [2]) [µM]	IC50 (B16-F1; [3]) [µM]	IC50 (A375; [5]) [µM]	IC50 (B16-F1; [6]) [µM]	other results
COc1cc(NC(=O)[C@@H]2CSC(c3ccccc3)N2)cc(OC)c1OC (mixture of isomers) [2a, (2RS,4R)-2-Phenyl-N-(3,4,5-trimethoxyphenyl)thiazolidine-4-carboxamide]	158 to 159 °C	> 100	> 100	–	–	antiproliferative activity against melanoma and prostate cancer cell lines, in words [1]: potency against both cancer cell lines was lost
COc1cc(NC(=O)[C@@H]2CSC(c3cc(OC)c(OC)c(OC)c3)N2)cc(OC)c1OC (mixture of isomers) [2b, (2RS,4R)—N,2-bis(3,4,5-trimethoxyphenyl)thiazolidine-4-carboxamide]	147 to 149 °C	> 100	> 100	–	–	antiproliferative activity against melanoma and prostate cancer cell lines, in words [1]: potency against both cancer cell lines was lost
COc1cc(NC(=O)[C@@H]2CSC(c3ccccc3)=N2)cc(OC)c1OC [4a, (4R)-2-Phenyl-N-(3,4,5-trimethoxyphenyl)-4,5-dihydrothiazole-4-carboxamide]	121 to 122 °C and 122 to 123 °C	22.8 ± 1.6	38.3 ± 3.2	–	–	IC50 [1, 4]: 3.4 to 38.3 µM
COc1cc(NC(=O)[C@@H]2CSC(c3ccccc3)=N2)cc(OC)c1OC [4b, (4R)-2-Phenyl-N-(3,4,5-trimethoxyphenyl)-4,5-dihydrothiazole-4-carboxamide]	–	–	–	–	–	IC50 (A375; SRB, 48 h, listed as 4b(4S), read-out: IC50 A375 (converted)): 13.6 ± 1.2 µM; IC50 (LNCaP; 96 h, listed as 4b(4S)): 16.8 ± 1.8 µM; IC50 (PPC-1; 96 h, listed as 4b(4S)): 3.4 ± 0.2 µM; IC50 (PC-3; 96 h, listed as 4b(4S)): 13.2 ± 2.1 µM; IC50 (B16-F1; SRB, 48 h, listed as 4b(4S), read-out: IC50 B16-F1 (converted)): 30.4 ± 2.8 µM
O=C(c1ccccc1)c1csc(-c2ccccc2)n1 [8a, Phenyl (2-phenylthiazol-4-yl)-methanone]	65 to 66 °C	> 100	> 100	–	–	–
COc1ccc(C(=O)c2csc(-c3ccccc3)n2)cc1 [8b, (4-Methoxyphenyl)(2-phenylthiazol-4-yl)-methanone]	105 to 106 °C	> 100	> 100	–	–	IC50 [1, 4]: > 20 µM
COc1cccc(C(=O)c2csc(-c3ccccc3)n2)c1 [8c, (3-Methoxyphenyl)(2-phenylthiazol-4-yl)-methanone]	43 to 44 °C	> 100	> 100	–	–	IC50 [1, 4]: > 20 µM
COc1ccccc1C(=O)c1csc(-c2ccccc2)n1 [8d, (2-Methoxyphenyl)(2-phenylthiazol-4-yl)-methanone]	–	70.3	59.4	–	–	IC50 [1, 4]: > 20 µM
COc1ccc(C(=O)c2csc(-c3ccccc3)n2)cc1OC [8e, (3,4-Dimethoxyphenyl)(2-phenylthiazol-4-yl)-methanone]	89 to 91 °C	> 100	> 100	–	–	IC50 [1, 4]: > 20 µM
COc1cc(OC)cc(C(=O)c2csc(-c3ccccc3)n2)c1 [8g, (3,5-Dimethoxyphenyl)(2-phenylthiazol-4-yl)-methanone]	84 to 85 °C	0.17	0.35	–	–	IC50 ([1]; average over six cell lines, read-out: average IC50): 0.261 µM; IC50 [1, 4]: 0.17 to 0.424 µM
O=C(c1csc(-c2ccccc2)n1)c1ccccc1F [8h, (2-Fluorophenyl)(2-phenylthiazol-4-yl)-methanone]	77 to 79 °C	> 100	> 100	–	–	–
O=C(c1ccccn1)c1csc(-c2ccccc2)n1 [8i, (2-Phenylthiazol-4-yl)-(pyridin-2-yl)-methanone]	95 to 97 °C	–	–	–	–	antiproliferative activity against melanoma and prostate cancer cell lines, in words [1]: total loss of the anti-cancer activity
CCCCCCCCCCCCCCCCC(=O)c1csc(-c2ccccc2)n1 [8j, 1-(2-Phenylthiazol-4-yl)-heptadecan-1-one]	63 to 64 °C	16	18.6	–	–	–
COc1cc(C(=O)c2csc(-c3ccc(C)cc3)n2)cc(OC)c1OC [8k, (2-p-Tolylthiazol-4-yl)-(3,4,5-trimethoxyphenyl)-methanone]	116 to 119 °C	–	–	–	–	IC50 [1, 4]: 0.005 to 0.021 µM; IC50 (PC-3): 0.005 µM
COc1ccc(-c2nc(C(=O)c3cc(OC)c(OC)c(OC)c3)cs2)cc1OC [8o, [2-(3,4-Dimethoxyphenyl)-thiazol-4-yl]-(3,4,5-trimethoxyphenyl)-methanone]	–	–	–	0.034	0.161	IC50 (LNCaP): 0.038 µM; IC50 (PPC-1): 0.056 µM; IC50 (DU 145): 0.102 µM; IC50 (PC-3): 0.069 µM
COc1cc(C(=O)c2csc(-c3ccc([N+](=O)[O-])cc3)n2)cc(OC)c1OC [8p, [2-(4-Nitrophenyl)-thiazol-4-yl]-(3,4,5-trimethoxyphenyl)-methanone]	–	–	–	0.038	0.056	IC50 (LNCaP): 0.039 µM; IC50 (PPC-1): 0.034 µM; IC50 (DU 145): 0.095 µM; IC50 (PC-3): 0.056 µM
COc1cc(C(=O)c2csc(-c3ccc(C(=O)O)cc3)n2)cc(OC)c1OC [8r, 4-[4-(3,4,5-Trimethoxybenzoyl)-thiazol-2-yl]-benzoic acid]	> 220 °C (dec.)	–	–	–	–	antiproliferative activity against melanoma and prostate cancer cell lines, in words [1]: total loss of the anti-cancer activity
COC(=O)c1ccc(-c2nc(C(=O)c3cc(OC)c(OC)c(OC)c3)cs2)cc1 [8s, Methyl-4-[4-(3,4,5-trimethoxybenzoyl)-thiazol-2-yl]-benzoate]	172 to 174 °C	–	–	–	–	antiproliferative activity against melanoma and prostate cancer cell lines, in words [1]: total loss of potency
COc1cc(C(=O)c2csc(-c3ccc(N)cc3)n2)cc(OC)c1OC [8w, [2-(4-Amino-phenyl)-thiazol-4-yl]-(3,4,5-trimethoxy-phenyl)-methanone]	–	–	–	–	–	IC50 [1, 4]: 0.011 to 0.029 µM
COc1cc(C(=O)c2csc(-c3cccs3)n2)cc(OC)c1OC [8z, [2-(Thiophen-2-yl)-thiazol-4-yl]-(3,4,5-trimethoxyphenyl)-methanone]	–	–	–	–	–	IC50 [1, 4]: 0.009 to 0.038 µM; IC50 (A375; [7]): 0.02 ± 0.007 µM; IC50 (LNCaP): 0.009 ± 0.001 µM; IC50 (DU 145): 0.022 ± 0.001 µM; IC50 (B16-F1; [8]): 0.038 ± 0.015 µM
O=C(c1cc(O)c(O)c(O)c1)c1csc(-c2ccccc2)n1 [11f, (2-Phenyl-thiazol-4-yl)-(3,4,5-trihydroxy-phenyl)-methanone]	–	–	–	–	–	antiproliferative activity against melanoma and prostate cancer cell lines, in words [1]: complete loss of antiproliferative activity
O=C(c1ccc(F)cc1)c1csc(-c2ccccc2)n1 [12-12]	–	–	–	> 10	> 10	–
O=C(c1ccc(F)cc1)c1csc(-c2ccc(F)cc2)n1 [14-14]	–	–	–	> 10	> 10	–
O=C(c1csc(-c2cc(F)c(F)c(F)c2)n1)c1c(F)c(F)c(F)c(F)c1F [16-16]	–	–	–	15.2	6.9	–
CCc1cc(C(=O)c2csc(-c3ccccc3)n2)cc(OC(F)(F)F)c1OC(=O)CCl [18-18]	–	–	–	–	–	IC50 (LNCaP): ~10 µM; IC50 (PPC-1): ~10 µM; IC50 (DU 145): ~10 µM; IC50 (PC-3): ~10 µM
COc1cc(C(=O)c2csc(-c3ccc(N)cc3)n2)cc(OC)c1OC [26-26]	–	–	–	–	–	IC50 (A375; [7]): 0.011 µM; IC50 (B16-F1; [8]): 0.014 µM
CCCCCCCCCCCCCCCCNC(=O)[C@@H]1CSC(c2ccc(NC(C)=O)cc2)N1 (some centres unmarked) [ATCAA-1, reference compound]	–	–	–	–	–	IC50 [1, 4]: 0.4 to 2.2 µM; IC50 (A375; SRB, 48 h, read-out: IC50 A375 (converted)): 2.1 ± 0.2 µM; IC50 (LNCaP; 96 h): 1 ± 0.1 µM; IC50 (PPC-1; 96 h): 0.4 ± 0.1 µM; IC50 (DU 145; 96 h): 1.7 ± 0.1 µM; IC50 (B16-F1; SRB, 48 h, read-out: IC50 B16-F1 (converted)): 2.2 ± 0.3 µM
COc1cc(NC(=O)c2csc(-c3ccccc3)n2)cc(OC)c1OC [compound 5, 2-Phenyl-N-(3,4,5-trimethoxyphenyl)thiazole-4-carboxamide]	157 to 158 °C	> 100	> 100	–	–	antiproliferative activity against melanoma and prostate cancer cell lines, in words [1]: did not show any cytotoxicity
